Reference: patent publication US4029805A, “Semisynthetic penicillins” (Hoffmann-La Roche Inc., priority 1976, dated 1977)
Read-outs that look alike come from different tables or passages of the source.

Tests used:
[1] = tested on: B. subtilis; assay: Stability in aqueous solution at room temperature, microbiological assay using B. subtilis; settings: in words
Experimental: To illustrate the relative stability of the compounds of this invention in aqueous solution at room temperature the sodium salts of the compounds were tested as 20% by weight aqueous solutions for activity by microbiological assay using B. subtilis as the test organism and compared to 10% and 20% aqueous solutions of amoxicillin sodium salt and 10% aqueous solution of the acetone derivative of amoxicillin.

[2] = tested on: S. aureus; assay: Curative dose against systemic S. aureus infection; type: in vivo, mice; settings: Staphylococcus aureus, in Mus musculus, read-out: CD50 (the source's name)
[3] = tested on: S. pyogenes; assay: Curative dose against systemic S. pyogenes infection; type: in vivo, mice; settings: Streptococcus pyogenes, in Mus musculus, read-out: CD50 (the source's name)
[4] = tested on: D. pneumoniae; assay: Curative dose against systemic D. pneumoniae infection; type: in vivo, mice; settings: Streptococcus pneumoniae, in Mus musculus, read-out: CD50 (the source's name)
[5] = tested on: E. coli; assay: Curative dose against systemic E. coli infection; type: in vivo, mice; settings: Escherichia coli, in Mus musculus, po
Experimental: (§1) In order to illustrate the relative activity of the compounds of this invention as compared to amoxicillin, the compounds, represented by the acetaldehyde derivative, were tested orally against systemic bacterial infections of mice with the following results. The CD50 is the curative dose in 50% of the animals treated against a challenge organism.

[6] = tested on: K. pneumoniae; assay: Curative dose against systemic K. pneumoniae infection; type: in vivo, mice; settings: Klebsiella pneumoniae, in Mus musculus, read-out: CD50 (the source's name)
[7] = tested on: S. typhosa; assay: Curative dose against systemic S. typhosa infection; type: in vivo, mice; settings: Mus musculus, po
Experimental: as §1

[8] = tested on: S. schottmuelleri; assay: Curative dose against systemic S. schottmuelleri infection; type: in vivo, mice; settings: Mus musculus
[9] = tested on: E. coli; assay: Curative dose against systemic E. coli infection; type: in vivo, mice; settings: Escherichia coli, in Mus musculus, read-out: CD50 (the source's name)
[10] = tested on: S. typhosa; assay: Curative dose against systemic S. typhosa infection; type: in vivo, mice; settings: Mus musculus, sc, read-out: CD50 (the source's name)
[11] = in vivo
[12] = po, Table 3(b), po, acetaldehyde derivative comparison
[13] = po, benzaldehyde derivative comparison
[14] = po, butyraldehyde derivative comparison
[15] = po, hexaldehyde derivative comparison
[16] = po, propionaldehyde derivative comparison
[17] = sc, Table 3(b), sc, acetaldehyde derivative comparison
[18] = sc, benzaldehyde derivative comparison
[19] = sc, butyraldehyde derivative comparison
[20] = sc, hexaldehyde derivative comparison
[21] = sc, propionaldehyde derivative comparison
[22] = Table 3(b), acetaldehyde derivative comparison, read-out: CD50 (the source's name)
[23] = read-out: CD50, Table 2, PO, mice

CC1(C)S[C@@H]2[C@H](NC(=O)[C@H](N)c3ccc(O)cc3)C(=O)N2[C@H]1C(=O)O [Amoxicillin, 6[(-)-alpha-amino-para-hydroxyphenylacetamido]-penicillanic acid]
stability in solution [1]: very short stability in parenteral solutions | ED50 ([2]; po, Table 2, PO, mice): 1.2 mg/kg | ED50 [2, 12]: 1.2 mg/kg | ED50 [2, 13]: 4 mg/kg | ED50 [2, 14]: 0.29 mg/kg | ED50 [2, 15]: 0.72 mg/kg | ED50 [2, 16]: 0.41 mg/kg | ED50 [2, 17]: 2 mg/kg | ED50 [2, 18]: 0.16 mg/kg | ED50 [2, 19]: 0.5 mg/kg | ED50 [2, 20]: 0.79 mg/kg | ED50 [2, 21]: 0.47 mg/kg | ED50 ([3]; po, Table 2, PO, mice): 1.5 mg/kg | ED50 [3, 12]: 1.5 mg/kg | ED50 [3, 13]: 0.82 mg/kg | ED50 [3, 14]: 0.08 mg/kg | ED50 [3, 15]: 0.3 mg/kg | ED50 [3, 16]: 0.16 mg/kg | ED50 [3, 17]: < 0.05 mg/kg | ED50 [3, 18]: 0.31 mg/kg | ED50 [3, 19]: < 0.01 mg/kg | ED50 [3, 20]: 0.11 mg/kg | ED50 [3, 21]: 0.07 mg/kg | ED50 ([4]; po, Table 2, PO, mice): 10 mg/kg | ED50 [4, 12]: 10 mg/kg | ED50 [4, 13]: < 0.2 mg/kg | ED50 [4, 14]: 2.7 mg/kg | ED50 [4, 15]: 0.75 mg/kg | ED50 [4, 16]: 1.1 mg/kg | ED50 [4, 17]: 0.53 mg/kg | ED50 [4, 18]: 0.14 mg/kg | ED50 [4, 19]: 3.2 mg/kg | ED50 [4, 20]: 0.07 mg/kg | ED50 [4, 21]: 0.19 mg/kg | ED50 [5, 22]: 6.4 mg/kg | ED50 [5, 23]: 6.4 mg/kg | ED50 ([6]; po, Table 2, PO, mice): 10 mg/kg | ED50 [6, 12]: 10 mg/kg | ED50 [6, 13]: 75 mg/kg | ED50 [6, 14]: 58 mg/kg | ED50 [6, 15]: 59 mg/kg | ED50 [6, 16]: 16 mg/kg | ED50 [6, 17]: 12 mg/kg | ED50 [6, 18]: 100 mg/kg | ED50 [6, 19]: 22 mg/kg | ED50 [6, 20]: 48 mg/kg | ED50 [6, 21]: 17 mg/kg | ED50 [7, 22]: 5 mg/kg | ED50 ([7]; benzaldehyde derivative comparison, read-out: CD50 (the source's name)): 1.3 mg/kg | ED50 ([7]; butyraldehyde derivative comparison, read-out: CD50 (the source's name)): 3.3 mg/kg | ED50 ([7]; hexaldehyde derivative comparison, read-out: CD50 (the source's name)): 3.7 mg/kg | ED50 ([7]; propionaldehyde derivative comparison, read-out: CD50 (the source's name)): 3.8 mg/kg | ED50 [7, 23]: 5.4 mg/kg | ED50 ([8]; po, Table 3(b), po, acetaldehyde derivative comparison, read-out: CD50 (the source's name)): 5.3 mg/kg | ED50 ([8]; po, benzaldehyde derivative comparison, read-out: CD50 (the source's name)): 5.5 mg/kg | ED50 ([8]; po, butyraldehyde derivative comparison, read-out: CD50 (the source's name)): 5.9 mg/kg | ED50 ([8]; po, hexaldehyde derivative comparison, read-out: CD50 (the source's name)): 4.4 mg/kg | ED50 ([8]; po, propionaldehyde derivative comparison, read-out: CD50 (the source's name)): 5.7 mg/kg | ED50 ([8]; po, read-out: CD50, Table 2, PO, mice): 5.3 mg/kg | ED50 ([8]; sc, Table 3(b), sc, acetaldehyde derivative comparison, read-out: CD50 (the source's name)): 6.5 mg/kg | ED50 ([8]; sc, benzaldehyde derivative comparison, read-out: CD50 (the source's name)): 6.7 mg/kg | ED50 ([8]; sc, butyraldehyde derivative comparison, read-out: CD50 (the source's name)): 2.3 mg/kg | ED50 ([8]; sc, hexaldehyde derivative comparison, read-out: CD50 (the source's name)): 1 mg/kg | ED50 ([8]; sc, propionaldehyde derivative comparison, read-out: CD50 (the source's name)): 6.1 mg/kg | ED50 [9, 13]: 16 mg/kg | ED50 [9, 14]: 15 mg/kg | ED50 [9, 15]: 10 mg/kg | ED50 [9, 16]: 11 mg/kg | ED50 [9, 17]: 10 mg/kg | ED50 [9, 18]: 5.9 mg/kg | ED50 [9, 19]: 6 mg/kg | ED50 [9, 20]: 2.5 mg/kg | ED50 [9, 21]: 3.4 mg/kg | ED50 ([10]; Table 3(b), acetaldehyde derivative comparison): 6.3 mg/kg | ED50 ([10]; benzaldehyde derivative comparison): 0.56 mg/kg | ED50 ([10]; butyraldehyde derivative comparison): 1.3 mg/kg | ED50 ([10]; hexaldehyde derivative comparison): 3.3 mg/kg | ED50 ([10]; propionaldehyde derivative comparison): 2.8 mg/kg | LD50 ([11]; ip): 3460 mg/kg | LD50 ([11]; po): > 10000 mg/kg | LD50 ([11]; sc): 10000 mg/kg
